The text below walks through data of patent US20260042746A1, “2(1H)-PYRIDINIMINE DERATIVE” (SUMITOMO PHARMA CO., LTD., priority 2022, published 2026).

SMILES strings stand for the structures.

Holding throughout (format): cell-based
In assay [1] the test system is α-synuclein aggregate. Description: Test 2: suppressing the accumulation of α-synuclein aggregate in neurospheroid from PLA2G6 mutant human iPS cells. The conditions noted are these: compound added day 4, measured day 9, DMSO = 100%. How it is done:
Test 2: Evaluation of Suppressing the Accumulation of α-Synuclein Aggregate with Neurospheroid Prepared from Human iPS Cells with a Mutation in PLA2G6 Gene
(§1) (1) Induction of Differentiation from Human iPS Cell to Neural Cell
Neural stem cells were induced from PLA2G6 gene mutant iPS cells with PSC Neuronal Induction Medium (Thermo Fisher Scientific Inc., cat #A1647801). Neurospheroid was prepared from the induced neural stem cells by three-dimensional culture system, and preserved with BrainPhys Neuronal Medium (STEMCELL Technologies, cat #ST-05793) comprising NeuroCult SM1 Neuronal Supplement, N2 Supplement-A, 20 ng/mL BDNF, 20 ng/mL GDNF, 1 mM dibutyryl cAMP, and 200 nM ascorbic acid. Half of the culture medium was replaced on day 2 and day 4 after the induction of differentiation.
The test compound was diluted with the culture medium so as to be twice the final concentration, and an equal volume of the twice-concentrated solution was added to each well when half of the culture medium was replaced on day 4 after induction of differentiation.
(§2) (2) Evaluation of the Amount of α-Synuclein Aggregate
From the neurospheroid 9 days after the induction of differentiation, proteins were extracted with a TBS solution containing 1% TritionX-100, and the extracted proteins were subjected to a protein analysis with Simple Western system (Protein Simple, Inc., cat #SM-W008) using an α-synuclein antibody (Thermo Fisher Scientific Inc., cat #AHB0261) to measure the amount of the α-synuclein aggregate.
Assuming that the amount of the aggregate in the neurospheroid added with a DMSO solution is 100%, the amount of the aggregate in the neurospheroid added with each test compound was evaluated.

Assay [2] concerns α-synuclein aggregate. In words: Test 3: reducing the accumulation of α-synuclein aggregate in neurospheroid from PLA2G6 mutant human iPS cells. The conditions noted are these: compound added day 10, measured day 15, DMSO = 100%. How it is done:
Test 3: Evaluation of Reducing the Accumulation of α-Synuclein Aggregate with Neurospheroid Prepared from Human iPS Cells with a Mutation in PLA2G6 Gene
as §1
(§3) Neural stem cells were induced from PLA2G6 gene mutant iPS cells with PSC Neuronal Induction Medium (Thermo Fisher Scientific Inc., cat #A1647801). Neurospheroid was prepared from the induced neural stem cells by three-dimensional culture system, and preserved with BrainPhys Neuronal Medium (STEMCELL Technologies, cat #ST-05793) comprising NeuroCult SM1 Neuronal Supplement, N2 Supplement-A, 20 ng/mL BDNF, 20 ng/mL GDNF, 1 mM dibutyryl cAMP, and 200 nM ascorbic acid. Half of the culture medium was replaced every 3 or 4 days after the induction of differentiation.
The test compound was diluted with the culture medium so as to be twice the final concentration, and an equal volume of the twice-concentrated solution was added to each well when half of the culture medium was replaced on day 10 after induction of differentiation.
as §2
From the neurospheroid 15 days after the induction of differentiation, proteins were extracted with a TBS solution containing 1% TritionX-100, and the extracted proteins were subjected to a protein analysis with Simple Western system (Protein Simple, Inc., cat #SM-W008) using an α-synuclein antibody (Thermo Fisher Scientific Inc., cat #AHB0261) to measure the amount of the α-synuclein aggregate.
(§4) The amount of the aggregate in the neurospheroid added with each test compound was measured. Assuming that the amount of the aggregate in the neurospheroid added with a DMSO solution is 100%, the amount of the aggregate in the test samples was evaluated.

Assay [3] has as its system α-synuclein aggregate. In words: Test 5: suppressing the accumulation of α-synuclein aggregate in dopamine neurospheroid from PLA2G6 mutant human iPS cells. The note with it: compound added day 21, measured day 26, DMSO = 100%. How it is done:
Test 5: Evaluation of Suppressing the Accumulation of α-Synuclein Aggregate with Dopamine Neurospheroid Prepared From Human iPS Cells with a Mutation in PLA2G6 Gene
as §1
as §3, with “Dopaminergic progenitor” for “Neural stem”, “dopaminergic neuron differentiation kit” for “PSC Neuronal Induction Medium”, “#A3147701). Dopamine neurospheroid” for “#A1647801). Neurospheroid”, “dopaminergic progenitor” for “neural stem”
The test compound was diluted with the culture medium so as to be twice the final concentration, and an equal volume of the twice-concentrated solution was added to each well when half of the culture medium was replaced on day 21 after induction of differentiation.
as §2
From the dopamine neurospheroid 26 days after the induction of differentiation, proteins were extracted with a TBS solution containing 1% TritionX-100, and the extracted proteins were subjected to a protein analysis with Simple Western system (Protein Simple, Inc., cat #SM-W008) using an α-synuclein antibody (Thermo Fisher Scientific Inc., cat #AHB0261) to measure the amount of the α-synuclein aggregate.
as §4

Assay [4] relates to α-synuclein aggregate. Description: Test 11: reducing the accumulation of α-synuclein aggregate in dopamine neurospheroid from GBA1 mutant human iPS cells. The conditions noted are these: compound added day 40, measured day 44, DMSO = 100%. The procedure:
Test 11: Evaluation of Reducing the Accumulation of α-Synuclein Aggregate with Dopamine Neurospheroid Prepared From Human iPS Cells with a Mutation in GBA1 Gene
as §1
Dopaminergic progenitor cells were induced from GBA1 gene mutant iPS cells with dopaminergic neuron differentiation kit (Thermo Fisher Scientific Inc., cat #A3147701). Dopamine neurospheroid was prepared from the induced dopaminergic progenitor cells by three-dimensional culture system, and preserved with BrainPhys Neuronal Medium (STEMCELL Technologies, cat #ST-05793) comprising NeuroCult SM1 Neuronal Supplement, N2 Supplement-A, 20 ng/mL BDNF, 20 ng/mL GDNF, 1 mM dibutyryl cAMP, and 200 nM ascorbic acid. Half of the culture medium was replaced every 3 or 4 days.
The test compound was diluted with the culture medium so as to be twice the final concentration, and an equal volume of the twice-concentrated solution was added to each well when half of the culture medium was replaced on day 40 after induction of differentiation.
as §2
From the dopamine neurospheroid 44 days after the induction of differentiation, proteins were extracted with a TBS solution containing 1% TritionX-100, and the extracted proteins were subjected to a protein analysis with Simple Western system (Protein Simple, Inc., cat #SM-W008) using an α-synuclein antibody (Thermo Fisher Scientific Inc., cat #AHB0261) to measure the amount of the α-synuclein aggregate.
as §4

On to `CCn1cccc/c1=N\C(=O)C1(C)COC1` [Example 3, N-[(2E)-1-ethylpyridin-2(1H)-ylidene]-3-methyloxetane-3-carboxamide], for which the activity at 0.1 µM in assay [1] (100 nM, read-out: Amount of aggregate (%) 100 nM) was determined as 35%. In assay [1] (1000 nM, read-out: Amount of aggregate (%) 1000 nM), the activity at 1 µM is 74%. For the same molecule, the results for the “Amount of aggregate (%) 100 nM” value in assay [2] (100 nM), in assay [3] (100 nM) and in assay [4] (100 nM) were 19%, 28% and 44%, respectively. In addition, the “Amount of aggregate (%) 1000 nM” value is 70% in assay [2] (1000 nM), 78% in assay [3] (1000 nM) and 39% in assay [4] (1000 nM).
